Active and inactive are the calls of the source.

Assay [1] has as its target T1, Sentrin-specific protease 6 (Homo sapiens, UniProt Q9GZR1).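 Further: Luminescence-based dose-response confirmatory assay of SENP6 inhibition, following up an ultra-high-throughput screen.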
T1 sequence (Q9GZR1 whole entry): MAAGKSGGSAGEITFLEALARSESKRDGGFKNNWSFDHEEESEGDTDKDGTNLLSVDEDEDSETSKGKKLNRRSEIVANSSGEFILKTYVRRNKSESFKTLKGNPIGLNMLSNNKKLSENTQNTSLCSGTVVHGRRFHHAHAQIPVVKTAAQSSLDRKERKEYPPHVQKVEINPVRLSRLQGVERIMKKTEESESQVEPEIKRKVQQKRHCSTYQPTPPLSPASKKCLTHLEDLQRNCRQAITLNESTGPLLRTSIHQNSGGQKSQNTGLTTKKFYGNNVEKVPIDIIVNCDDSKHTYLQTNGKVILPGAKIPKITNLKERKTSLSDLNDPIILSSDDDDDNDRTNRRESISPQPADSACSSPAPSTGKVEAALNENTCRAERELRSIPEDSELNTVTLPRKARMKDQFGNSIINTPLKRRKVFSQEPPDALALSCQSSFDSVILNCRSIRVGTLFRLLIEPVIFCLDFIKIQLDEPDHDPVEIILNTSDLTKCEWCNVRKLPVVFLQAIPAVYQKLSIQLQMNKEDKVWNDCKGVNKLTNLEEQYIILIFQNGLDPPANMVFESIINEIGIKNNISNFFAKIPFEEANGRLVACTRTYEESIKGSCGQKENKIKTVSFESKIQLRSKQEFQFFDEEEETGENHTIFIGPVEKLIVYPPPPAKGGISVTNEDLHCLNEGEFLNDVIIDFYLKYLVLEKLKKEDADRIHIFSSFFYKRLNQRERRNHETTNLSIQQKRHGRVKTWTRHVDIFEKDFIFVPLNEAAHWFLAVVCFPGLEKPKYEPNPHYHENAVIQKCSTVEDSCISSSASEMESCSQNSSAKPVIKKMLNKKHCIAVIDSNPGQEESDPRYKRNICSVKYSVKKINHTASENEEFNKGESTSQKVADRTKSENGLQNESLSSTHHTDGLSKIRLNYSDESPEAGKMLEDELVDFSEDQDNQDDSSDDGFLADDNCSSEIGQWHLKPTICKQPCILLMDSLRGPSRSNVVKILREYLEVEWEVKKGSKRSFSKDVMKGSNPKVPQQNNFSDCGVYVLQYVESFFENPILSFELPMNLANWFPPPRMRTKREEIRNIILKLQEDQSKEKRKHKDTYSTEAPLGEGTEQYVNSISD
The assay is classed as functional.

The target in assay [2] is T2, Caspase-3 (Homo sapiens, UniProt P42574).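 Further: Dose-response selectivity test against caspase-3 for candidate inhibitors of sentrin-specific proteases (SENPs).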
T2 sequence (P42574 whole entry): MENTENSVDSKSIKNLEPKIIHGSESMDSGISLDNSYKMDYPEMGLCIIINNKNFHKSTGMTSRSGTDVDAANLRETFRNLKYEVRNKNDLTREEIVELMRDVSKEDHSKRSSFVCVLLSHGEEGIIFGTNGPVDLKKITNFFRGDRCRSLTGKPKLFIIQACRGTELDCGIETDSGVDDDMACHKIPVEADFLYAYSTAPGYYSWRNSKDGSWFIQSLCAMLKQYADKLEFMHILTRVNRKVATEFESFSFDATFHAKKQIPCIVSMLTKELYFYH
The assay is classed as functional.

Assay [3] deals with T3, COUP transcription factor 2 (Homo sapiens, UniProt P24468).
T3 sequence (P24468 whole entry): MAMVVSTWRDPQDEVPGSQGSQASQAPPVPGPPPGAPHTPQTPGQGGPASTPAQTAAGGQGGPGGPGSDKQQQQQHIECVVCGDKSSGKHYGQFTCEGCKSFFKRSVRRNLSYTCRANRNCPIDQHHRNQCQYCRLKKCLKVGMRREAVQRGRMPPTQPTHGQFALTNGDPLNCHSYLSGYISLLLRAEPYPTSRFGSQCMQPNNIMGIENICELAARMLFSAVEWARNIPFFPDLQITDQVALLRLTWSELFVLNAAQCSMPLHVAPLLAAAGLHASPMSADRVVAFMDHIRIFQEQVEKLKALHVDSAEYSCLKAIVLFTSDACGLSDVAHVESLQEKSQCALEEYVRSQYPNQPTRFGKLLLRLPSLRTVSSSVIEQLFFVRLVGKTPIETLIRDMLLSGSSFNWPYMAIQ
Description: Luminescence-based cell-based high throughput dose response assay to identify inhibitors of COUP-TFII (NR2F2). The assay is classed as functional.

In assay [4] the test system is Streptococcus sp. 'group A'. Description: Streptococcus pyogenes SK(-)GAS viability under kanamycin – luminescence, BacTiterGlo, confirmation, counter-screen for streptokinase expression inhibitor project, dose response (AID 1900). The assay is classed as functional, organism-based. A general note: The purpose of a counterscreen is to sort out artefacts and off-target activity.

In assay [5] the target is T4, Heat shock factor protein 1 (Mus musculus, UniProt P38532).
T4 sequence (P38532 whole entry): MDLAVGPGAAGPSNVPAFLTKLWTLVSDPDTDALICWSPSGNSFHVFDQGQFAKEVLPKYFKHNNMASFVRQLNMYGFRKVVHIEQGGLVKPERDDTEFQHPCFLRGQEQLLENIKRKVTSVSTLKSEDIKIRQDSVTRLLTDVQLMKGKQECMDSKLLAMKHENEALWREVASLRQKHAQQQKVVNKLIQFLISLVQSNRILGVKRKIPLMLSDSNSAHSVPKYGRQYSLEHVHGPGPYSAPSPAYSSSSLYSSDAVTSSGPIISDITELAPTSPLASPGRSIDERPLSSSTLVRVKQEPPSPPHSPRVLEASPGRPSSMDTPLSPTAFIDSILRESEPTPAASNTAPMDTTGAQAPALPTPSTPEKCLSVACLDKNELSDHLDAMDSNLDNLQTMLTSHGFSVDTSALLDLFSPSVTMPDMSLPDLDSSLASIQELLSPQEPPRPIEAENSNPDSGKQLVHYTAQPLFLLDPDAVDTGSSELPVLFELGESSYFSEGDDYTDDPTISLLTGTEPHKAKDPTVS
In words: decrease of HSF1-responsive luciferase luminescence – cell-based, NIH3T3, dose retest, confirmation (AID 2382).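 Further: NIH3T3 fibroblasts with HSF1-driven luciferase reporter stressed by proteasome inhibitor MG132; luminescence from HSF1-driven luciferase expression after 8 hours of MG132 stress.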 The assay is classed as functional.

Assay [6] in a line: HEK-293T viability loss after treatment – luminescence, T-cell screen hits, cytotoxicity control for TCR NF-kB inhibitor project, dose response (AID 489026).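 Further: cells exposed to compound about 14 hours before the viability readout.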 The assay is classed as functional, cell-based.
A short description of assay [7]: NIH-3T3 fibroblast cytotoxicity, dose response, cytotoxicity control, cell-based, fluorescence, Alamar Blue, secondary assay (AID 2327).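 Further: NIH-3T3 mouse fibroblasts cultured with fluconazole at 8 µg/mL.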 The assay is classed as functional.
The test system of assay [8] is BJ. Description: BJ-TERT fibroblast viability loss – cell-based, RAS-independent, luminescence, dose response (AID 1933). The assay is classed as functional. The following applies: Homo sapiens.
A short description of assay [9]: Counterscreen for AddAB inhibitors: absorbance-based bacterial cell-based high throughput dose response assay for inhibitors of bacterial viability. [Related pubchem assays (depositor defined):AID435030, AID449728, AID449731, AID488942, AID488955, AID488956]. The assay is classed as functional.
Assay [10] in a line: cells.
Assay [11] is described as follows: Trypanosoma cruzi growth suppression in host cells – NIH3T3 host cells, beta-gal luminescence, confirmation (AID 2044).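 Further: intracellular parasites grown in NIH/3T3 mouse fibroblasts as host cells; luminescent beta-galactosidase reporter signal from transgenic T. cruzi replicating inside host cells; inhibitors lower the luminescence signal.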 The assay is classed as functional, cell-based.
Assay [12] is described as follows: DRD fibroblast viability loss – cell-based, non-viral oncogenic, luminescence, dose response (AID 1934). The assay is classed as functional. The following applies: Homo sapiens.
Assay [13] deals with INS1. In words: INS-1E survival protection against cytokine death – cell-based, luminescence, retest, dose response (AID 449756).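 Further: cell death triggered by IL-1 beta plus TNF-alpha plus IFN-gamma mixture; protective hits raise ATP signal compared with cytokine alone wells.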 The assay is classed as functional. The following applies: Rattus norvegicus.

The IC50 is the midpoint of a concentration-inhibition curve. Broadly, the EC50 is the concentration at which the effect is half-maximal. As to `CCOc1cccc(/C=N/NC(=S)Nc2ccccc2[N+](=O)[O-])c1O`, the IC50 in [1] is 10.3 µM (active); in [2], 4.25 µM (active); in [3], 5.05 µM (active). In addition, the results for the 50% effective concentration (EC50) in [4] and in assay [5] were 0.267 µM (active) and 3.56 µM (active), respectively.

The term AC50 denotes the midpoint of the concentration-response curve, whichever way the signal moves. With `CCCCC(=O)NC(c1ccc(N(CC)CC)cc1)c1ccc2cccnc2c1O` (stereo not drawn), the IC50 in assay [6] was > 80 µM (inactive); in [9], > 119 µM (inactive). Moreover, the half-maximal effective concentration (EC50) was 18.1 µM (inconclusive) in assay [7]; 0.717 µM (active) in assay [8]; 0.241 µM (active) in assay [10]; < 0.1 µM (active) in assay [11]; 5.53 µM (active) in assay [12]. In addition, in assay [13], the half-maximal activity concentration (AC50) was 0.38 µM (active).
